Measured values published in PMC6443876, “Molecular structure of a 5,10‐methylenetetrahydrofolate dehydrogenase from the silkworm Bombyx mori” (FEBS Open Bio, 2019).

Assays:
bmMTHFD [1] = biological target: T1, bmMTHFD (Bombyx mori, UniProt H9IYM1, K53A); test: endpoint absorbance at […] nm, Michaelis-Menten fit; format: biochemical; settings: dehydrogenase activity, 20 mM sodium phosphate pH 6.5, 30 mM 2-mercaptoethanol, 28 °C
T1 construct: gene method; full-length ORF (906 bp, 301 residues, 32 733 Da), pET-15b (NdeI/BamHI); homodimer ~63 kDa; cDNA from larval fat body
T1 sequence (H9IYM1 entry or part of it K53A): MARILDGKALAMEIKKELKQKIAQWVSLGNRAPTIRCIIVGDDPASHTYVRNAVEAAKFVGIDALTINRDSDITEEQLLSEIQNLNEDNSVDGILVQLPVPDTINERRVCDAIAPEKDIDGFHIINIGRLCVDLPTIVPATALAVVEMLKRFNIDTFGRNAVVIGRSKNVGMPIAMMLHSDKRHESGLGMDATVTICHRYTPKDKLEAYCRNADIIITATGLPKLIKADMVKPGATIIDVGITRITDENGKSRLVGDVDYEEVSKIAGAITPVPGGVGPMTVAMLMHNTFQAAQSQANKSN

bmMTHFD [2] = biological target: T2, bmMTHFD (Bombyx mori, UniProt H9IYM1, D120A); test: endpoint absorbance at […] nm, Michaelis-Menten fit; format: biochemical; settings: dehydrogenase activity; MTHF as co-substrate; 20 mM sodium phosphate pH 6.5, 30 mM 2-mercaptoethanol, 28 °C
T2 construct: gene method; full-length ORF (906 bp, 301 residues, 32 733 Da), pET-15b (NdeI/BamHI); homodimer ~63 kDa; cDNA from larval fat body
T2 sequence (H9IYM1 entry or part of it D120A): as the sequence (H9IYM1 entry or part of it K53A) above, with A53K, D120A counted along it

bmMTHFD [3] = biological target: T3, bmMTHFD (Bombyx mori, UniProt H9IYM1, S46A); test: endpoint absorbance at […] nm, Michaelis-Menten fit; format: biochemical; settings: dehydrogenase activity, 20 mM sodium phosphate pH 6.5, 30 mM 2-mercaptoethanol, 28 °C
T3 construct: gene method; full-length ORF (906 bp, 301 residues, 32 733 Da), pET-15b (NdeI/BamHI); homodimer ~63 kDa; cDNA from larval fat body
T3 sequence (H9IYM1 entry or part of it S46A): as the sequence (H9IYM1 entry or part of it K53A) above, with S46A, A53K counted along it

bmMTHFD [4] = biological target: T4, bmMTHFD (Bombyx mori, UniProt H9IYM1); test: endpoint absorbance at […] nm, Michaelis-Menten fit; format: biochemical; settings: dehydrogenase activity, 20 mM sodium phosphate pH 6.5, 30 mM 2-mercaptoethanol, 28 °C
T4 construct: gene method; full-length ORF (906 bp, 301 residues, 32 733 Da), pET-15b (NdeI/BamHI); homodimer ~63 kDa; cDNA from larval fat body
T4 sequence (H9IYM1 1-301): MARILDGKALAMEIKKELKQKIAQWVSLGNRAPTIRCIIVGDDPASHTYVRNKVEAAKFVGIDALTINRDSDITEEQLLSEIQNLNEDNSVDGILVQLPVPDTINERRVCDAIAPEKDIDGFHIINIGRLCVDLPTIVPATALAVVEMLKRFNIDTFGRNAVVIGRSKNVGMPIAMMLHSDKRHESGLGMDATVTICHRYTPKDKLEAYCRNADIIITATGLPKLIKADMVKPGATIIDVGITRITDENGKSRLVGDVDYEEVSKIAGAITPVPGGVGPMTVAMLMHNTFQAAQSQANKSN

bmMTHFD [5] = biological target: T5, bmMTHFD (Bombyx mori, UniProt H9IYM1, Q97A); test: endpoint absorbance at […] nm, Michaelis-Menten fit; format: biochemical; settings: dehydrogenase activity; NADP+ as cofactor; 20 mM sodium phosphate pH 6.5, 30 mM 2-mercaptoethanol, 28 °C
T5 construct: gene method; full-length ORF (906 bp, 301 residues, 32 733 Da), pET-15b (NdeI/BamHI); homodimer ~63 kDa; cDNA from larval fat body
T5 sequence (H9IYM1 entry or part of it Q97A): as the sequence (H9IYM1 entry or part of it K53A) above, with A53K, Q97A counted along it

bmMTHFD [6] = biological target: T5, bmMTHFD; test: decrease in absorption at […] nm, Michaelis-Menten fit; format: biochemical; settings: cyclohydrolase activity; 0.1 M potassium maleate pH 7.4, 0.02 M 2-mercaptoethanol, 30 °C
bmMTHFD [7] = biological target: T4, bmMTHFD; test: as above; format: biochemical; settings: cyclohydrolase activity; 0.1 M potassium maleate pH 7.4, 0.02 M 2-mercaptoethanol, 30 °C
bmMTHFD [8] = biological target: T2, bmMTHFD; test: as above; format: biochemical; settings: cyclohydrolase activity; 0.1 M potassium maleate pH 7.4, 0.02 M 2-mercaptoethanol, 30 °C
bmMTHFD [9] = biological target: T1, bmMTHFD; test: as above; format: biochemical; settings: cyclohydrolase activity; 0.1 M potassium maleate pH 7.4, 0.02 M 2-mercaptoethanol, 30 °C
[10] = biological target: Bombyx mori 5,10-methylenetetrahydrofolate dehydrogenase (Bombyx mori); test: SEC; Superdex 200 analytical gel filtration, calibrated with protein standards (thyroglobulin, globulin, ovalbumin, myoglobin); bmMTHFD eluted at 205 mL, corresponding to 63 kDa

Compound: NC(=O)c1ccc[n+]([C@@H]2O[C@H](COP(=O)(O)OP(=O)(O)OC[C@H]3O[C@@H](n4cnc5c(N)ncnc54)[C@H](OP(=O)(O)O)[C@@H]3O)[C@@H](O)[C@H]2O)c1 [NADP^+]
- K53A (bmMTHFD [1]; MTHF as co-substrate): 0.62 (± 6.5 × 10^−2) mM
- D120A (bmMTHFD [2]): 2.0 (± 1.4 × 10^−1) mM
- S46A (bmMTHFD [3]; MTHF as co-substrate): 0.98 (± 1.3 × 10^−1) mM
- WT (bmMTHFD [4]; MTHF as co-substrate): 0.22 (± 1.0 × 10^−2) mM

Compound: NC(=O)c1ccc[n+]([C@@H]2O[C@H](COP(=O)(O)OP(=O)(O)OC[C@H]3O[C@@H](n4cnc5c(N)ncnc54)[C@H](O)[C@@H]3O)[C@@H](O)[C@H]2O)c1 [NAD^+]
- D120A (bmMTHFD [2]): 2.0 (± 9.0 × 10^−2) mM
- WT (bmMTHFD [4]; MTHF as co-substrate): 0.27 (± 2.0 × 10^−2) mM

Compound: Nc1nc2c(c(=O)[nH]1)N1CN(c3ccc(C(=O)N[C@@H](CCC(=O)O)C(=O)O)cc3)C[C@H]1CN2 [MTHF]
- K53A (bmMTHFD [1]; NADP+ as cofactor): 1.1 (± 1.8 × 10^−2) mM
- S46A (bmMTHFD [3]; NADP+ as cofactor): 0.19 (± 4.8 × 10^−3) mM
- WT (bmMTHFD [4]; NADP+ as cofactor): 0.51 (± 3.3 × 10^−2) mM
- Q97A (bmMTHFD [5]): 0.81 (± 2.8 × 10^−2) mM

Compound: Nc1nc2c(c(=O)[nH]1)[N+]1=CN(c3ccc(C(=O)N[C@@H](CCC(=O)O)C(=O)O)cc3)C[C@H]1CN2 [5,10-methenyl-THF]
- Q97A (bmMTHFD [6]): 0.019 (± 2.5 × 10^−3) mM
- WT (bmMTHFD [7]): 0.13 (± 6.0 × 10^−3) mM
- D120A (bmMTHFD [8]): 0.23 (± 2.5 × 10^−2) mM
- K53A (bmMTHFD [9]): 0.16 (± 1.5 × 10^−2) mM

Compound: Bombyx mori 5,10-methylenetetrahydrofolate dehydrogenase (enzyme)
- stoichiometry N [10]: 2
